Reference: PubChem BioAssay AID1963446 (Molecular Pharmacology Branch, DTP, NCI, 2024)
“And” between values parts separate entries of the source, which are not always exact repeats. Equal entries are not always repeated.

Tested on: 993429-296-R-J1-PDC complex spheroid growth, percent test/control
Test: Anticancer human tumor 993429-296-R-J1-PDC patient-derived uterine sarcoma cell line growth inhibition [Asc]
Conditions: for viability, T/C: stronger effect = lower value
Procedure: Multicellular complex tumor spheroid response to apoptosis pathway targeting inhibitors Alrizomadlin, Pelcitoclax, and Dasminapant in combination with a variety of drugs and investigational agents in selected tumor cell lines
The MDM2 inhibitor alrizomadlin, the Bcl-2/Bcl-xL inhibitor pelcitoclax, and the IAPs inhibitor dasminapant were evaluated both individually and in combination with standard of care and investigational anticancer small molecules within a complex spheroid model of solid tumors. . Complex spheroids include a stromal component modeled by human endothelial cells (HUVEC) and fibroblasts modeled by human mesenchymal stem cells (MSCs). The concentration ranges selected for each drug and investigational agent were based upon clinically achievable concentrations if the clinical Cmax of the agent was known.
Compounds. The drugs and investigational agents: alrizomadlin (APG-115; NSC831270), pelcitoclax (APG-1252; NSC835773), dasminapant (APG-1387;NSC834197), TAK-243 (NSC785004), copanlisib (NSC809693), olaparib (NSC753686), talazoparib (NSC767125), cobimetinib (NSC 768068), eltanexor (KPT-8602, NSC 794443), abemaciclib (NSC 768073), sotorasib (NSC818433), adagrasib (NSC 831453), MRTX-1133 (NSC 836407), Iadademestat (ORY1001, NSC 806812), and RMC-4630 (NSC839698), were obtained from the NCI Developmental Therapeutics Program Chemical Repository. The FDA-approved anticancer drug set is available from the Developmental Therapeutics Program at https://dtp.cancer.gov/organization/dscb/obtaining/available plates.htm. […] The stock solutions were prepared in dimethyl sulfoxide (DMSO, Sigma-Aldrich, St. Louis, MO, cat. D2650) at 800-fold the tested concentration and stored at -70 degrees C prior to their use. All drugs and investigational agents were tested over a range starting from a high concentration at or near the clinical Cmax and decreasing in half-log increments. If the clinical Cmax for an agent had not been determined, the highest concentration tested was 10 microM.
The patient-derived cancer (PDC) cell lines include five colon adenocarcinomas: 186277-243-T-J2-PDC, 616215-338-R-J1-PDC, 439559-082-T-J2-PDC, 463943-066-T-J2-PDC, and 519858-162-T-J1-PDC; three pancreatic carcinomas: 323965-272-R-J2-PDC, 521955-158-R6-J3-PDC, and 521955-158-R2-J5-PDC; two uterine sarcomas: 327498-152-R-J2-PDC and 993429-296-R-J1-PDC; two rhabdomyosarcomas: 755483-174-R-J1-PDC and 772245-204-R-J1-PDC; two soft tissue sarcomas: 126254-015-R-J1-PDC and 494315-158-R-J1-PDC; two malignant fibrous histiocytomas: 317291-083-R-J1-PDC and 596521-263-R-J1-PDC; two breast carcinomas: 171881-019-R-J1-PDC and 885512-296-R-J2-PDC; and one ovarian carcinoma: 6556581-035-R-J-PDC were obtained from the NCI PDMR, (https://pdmr.cancer.gov). The established cell lines HSSY-2 synovial sarcoma (RRID:CVCL 8719), SYO-1 synovial sarcoma (RRID:CVCL_7146), MPNST malignant peripheral neural sheath tumor were obtained from the Sloan Kettering Institute. The following established cell lines were purchased from the American Type Culture Collection (ATCC, Manassas, VA), Sor the received from the NCI repository:, PANC-1 pancreatic carcinoma (CRL-1469, RRID:CVCL_0480), OVCAR-5 ovarian carcinoma (RRID:CVCL_1628), OVCAR-8 ovarian carcinoma (RRID:CVCL_1629), , MCF-7 breast carcinoma (CRL-12584, RRID:CVCL_0031), MDA-MB-231 breast carcinoma (CRL-12532, RRID:CVCL_0062), NCI-H1876 small cell lung carcinoma (CRL-5902, RRID:CVCL_1503), NCI-H510A small cell lung carcinoma (HTB-184, RRID:CVCL_1565), NCI-H1417 (CRL-5869, RRID:CVCL_1469), and NCI-H196 small cell lung carcinoma (CRL-5823, RRID:CVCL_1509). Dr. Peter Houghton (Greehey Children's Cancer Research Institute, University of Texas Health Science Center, San Antonio, TX) provided Rh-18 rhabdomyosarcoma (RRID:CVCL_1659). Pooled donor human umbilical vein endothelial cells (HUVEC, Lonza, cat. CC-2519) and human mesenchymal stem cells (hMSC, Lonza, cat. PT-2501) were purchased from Lonza (Walkersville, MD).
Cell Culture. […]
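Further: spheroids exposed to compounds for seven days.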

In the case of `COc1c(OCCCN2CCOCC2)ccc2c3n(c(=NC(=O)c4cnc(N)nc4)nc12)CCN3` + CCN1C(C(=O)NC23CCC(C(=O)O)(CC2)CC3)C(c2cccc(Cl)c2F)C2(C(=O)Nc3cc(Cl)ccc32)C12CCCCC2, the IC50 (curve of first compound, second compound 0.03 µM) is reported as 24.5 nM, the IC50 (curve of first compound, second compound 0.0949 µM) is reported as 26.1 nM and the IC50 (curve of first compound, second compound 0.3 µM) is reported as 23.5 nM. It also gave an IC50 (curve of first compound, second compound 0.949 µM) of 29.1 nM, an IC50 (curve of first compound, second compound 3 µM) of 21.8 nM and a viability, T/C (second compound 0.03 µM, first compound 0.00316 µM) of 94.7%. It also gave a viability, T/C (second compound 0.03 µM, first compound 0.01 µM) of 84.8%, a viability, T/C (second compound 0.03 µM, first compound 0.0316 µM) of 40.2% and a viability, T/C (second compound 0.03 µM, first compound 0.1 µM) of 6.36%. It also gave a viability, T/C (second compound 0.03 µM, first compound 0.316 µM) of 4.17%, a viability, T/C (second compound 0.03 µM, first compound 1 µM) of 1.31% and a viability, T/C (second compound 0.0949 µM, first compound 0.00316 µM) of 82.9%. The viability, T/C (second compound 0.0949 µM, first compound 0.01 µM) was 86.2%, the viability, T/C (second compound 0.0949 µM, first compound 0.0316 µM) was 43% and the viability, T/C (second compound 0.0949 µM, first compound 0.1 µM) was 7.8%. For the same molecule, the viability, T/C (second compound 0.0949 µM, first compound 0.316 µM) was 3.21%, the viability, T/C (second compound 0.0949 µM, first compound 1 µM) was 1.48% and the viability, T/C (second compound 0.3 µM, first compound 0.00316 µM) was 96.6%. It also gave a viability, T/C (second compound 0.3 µM, first compound 0.01 µM) of 73.5%, a viability, T/C (second compound 0.3 µM, first compound 0.0316 µM) of 44.7% and a viability, T/C (second compound 0.3 µM, first compound 0.1 µM) of 8.77%. For the same molecule, the viability, T/C (second compound 0.3 µM, first compound 0.316 µM) was 3.89%, the viability, T/C (second compound 0.3 µM, first compound 1 µM) was 1.15% and the viability, T/C (second compound 0.949 µM, first compound 0.00316 µM) was 78.4%. The viability, T/C (second compound 0.949 µM, first compound 0.01 µM) was 89.8%, the viability, T/C (second compound 0.949 µM, first compound 0.0316 µM) was 47.4% and the viability, T/C (second compound 0.949 µM, first compound 0.1 µM) was 7.2%. It also gave a viability, T/C (second compound 0.949 µM, first compound 0.316 µM) of 4.24%, a viability, T/C (second compound 0.949 µM, first compound 1 µM) of 1.63% and a viability, T/C (second compound 3 µM, first compound 0.00316 µM) of 81.4%. For the same molecule, the viability, T/C (second compound 3 µM, first compound 0.01 µM) was 70%, the viability, T/C (second compound 3 µM, first compound 0.0316 µM) was 41% and the viability, T/C (second compound 3 µM, first compound 0.1 µM) was 7.7%. The viability, T/C (second compound 3 µM, first compound 0.316 µM) was 3.98% and the viability, T/C (second compound 3 µM, first compound 1 µM) was 1.49%.

With `C=C(F)C(=O)N1CCN(c2nc(OCC3CCCN3C)nc3c2CCN(c2cccc4cccc(Cl)c24)C3)CC1CC#N` (configuration not stated) the viability, T/C (compound 0.0316 µM) was 85.9% and 98.6% and 98.2%, the viability, T/C (compound 0.1 µM) was 93.5% and 103% and 95.2% and the viability, T/C (compound 0.316 µM) was 82.5% and 88.7% and 91.7%. The viability, T/C (compound 1 µM) was 43.8% and 63.6% and 99.8%, the viability, T/C (compound 3.16 µM) was 6.98% and 7.87% and 29.6% and the viability, T/C (compound 10 µM) was 0.4% and 0.19% and 0.21%. The IC50 (curve of compound) was 836 nM and 1300 nM and 2220 nM.
